Experimental data reported in publication PMC9221018, “Sulfonamide-Derived Dithiocarbamate Gold(I) Complexes Induce the Apoptosis of Colon Cancer Cells by the Activation of Caspase 3 and Redox Imbalance” (Biomedicines, 2022).
Like-named read-outs stand apart in the source and are kept apart here.

How the values were obtained:
[1] = test system: Caco-2 cells; test: MTT cytotoxicity assay in undifferentiated Caco-2 cells; assay type: cell-based, human
Experimental: (§1) The human Caco-2 cell line (TC7 clone) was kindly provided by Dr. Edith Brot-Laroche (Université Pierre et Marie Curie-Paris 6, UMR S 872, Les Cordeliers, France). Human epithelial fibroblast cells (NHDF-Ad, Lonza®®, Porriño, Spain) were kindly provided by Dr. Gracia Mendoza (Aragon Health Research Institute, IIS Aragón, Spain). Caco-2 cells (passages 40–70) and fibroblasts (passages 10–30) were maintained in a humidified atmosphere of 5% CO2 at 37 °C and grown in medium following the method used by Quero et al.. The Caco-2 cells were sub-cultured in 25 cm^2 plastic flasks at a density of 1.2 × 10^4 cells/cm^2, while the fibroblasts were sub-cultured on 75 cm^2 plastic flasks at a density of 1 × 10^4 cells/cm^2. The culture medium was replaced every 2 days.
(§2) The gold complexes were diluted in dimethyl sulfoxide (DMSO) as a 10 mM stock solution, and then diluted in cell culture medium at the desired concentrations.
(§3) For the cytotoxicity screening assays, Caco-2 cells were seeded in 96-well plates at a density of 4 × 10^3 cells/well. The culture medium was replaced with medium containing the drug panel 24 h post-seeding, and the cells were incubated for 24, 48 and 72 h. […] In differentiated Caco-2 and fibroblasts, culture medium containing metal gold complexes was added 15 days post-seeding, and the cells were incubated for 72 h. The antiproliferative effect was measured using an MTT assay, as previously described by Mármol et al.. The absorbance at 540/620 nm was measured using a SPECTROstar Nano (BMG Labtech, Ortenberg, Germany). In order to determine the selectivity index (SI), the IC50 value of the differentiated Caco-2 cells was divided by IC50 value in undifferentiated Caco-2, obtaining the ratio of the normal/cancerous cells’ toxicity.

[2] = n-octanol-water distribution coefficient, shake-flask method; assay type: physicochemical; settings: n-octanol/buffered saline pH 7.4, shake-flask
Experimental: The n-octanol−water coefficients of the complexes were determined using a shake-flask method, as reported previously. Briefly, 100 mL buffered-saline (0.15 M NaCl, 10 mM phosphate [PO4^3−] buffer, pH 7.4) and 100 mL n-octanol were shaken for 72 h. The addition of 1 mg of the complexes followed by the centrifugation and separation of both phases gave two solutions, which were analysed by UV absorbance spectroscopy to determine their concentration in each phase. The corresponding value of log P was defined as log{[compound(organic)]/[compound(aqueous)]}.

[3] = test system: Human epithelial fibroblast cells (NHDF-Ad); test: MTT viability assay in human epithelial fibroblasts; assay type: cell-based; settings: complexes at their IC50 (1 1.14 μM, 3 1.7 μM, 8 7.22 μM, 9 8.56 μM), 72 h
Experimental: as §1, §2, §3

[4] = test system: differentiated Caco-2 cells; test: MTT cytotoxicity assay in differentiated Caco-2 cells (healthy cell model); assay type: cell-based, human; settings: for decrease of cell viability: complexes at their IC50 (1 1.14 μM, 3 1.7 μM, 8 7.22 μM, 9 8.56 μM), 72 h; for IC50: treatment for 72 h
Experimental: as §1, §2, §3

[5] = treatment for 72 h, read-out: IC50
[6] = 24 h incubation, read-out: IC50 24 h
[7] = 48 h incubation, read-out: IC50 48 h
[8] = 72 h incubation, read-out: IC50 72 h

| Compound | IC50 [1, 5] [µM] | Log P7.4 [2] | IC50 [1, 6] [µM] | IC50 [1, 7] [µM] | IC50 [1, 8] [µM] | decrease of cell viability [3] | decrease of cell viability [4] | IC50 [4] [µM] |
| --- | --- | --- | --- | --- | --- | --- | --- | --- |
| Cc1ccc(S(=O)(=O)NC(=S)[S][Au][PH](c2cccc(S(=O)(=O)[O-])c2)(c2cccc(S(=O)(=O)[O-])c2)c2cccc(S(=O)(=O)[O-])c2)cc1.[Na+].[Na+].[Na+] [Complex 5, [Au(S2CNHSO2-p-Me-C6H4)(TPPTS)]] | 31.8 ± 6.05 | −0.78 |  |  |  |  |  |  |
| C#CCn1ccn(C)[c]1=[Au-].O=S(=O)(NC(=S)[S-])c1ccccc1 [Complex 7, [Au(S2CNHSO2C6H5)(IMePropargyl)]] | 33.3 ± 5.01 | 0.35 |  |  |  |  |  |  |
| C#CCn1ccn(Cc2ccccc2)[c]1=[Au-].O=S(=O)(NC(=S)[S-])c1ccccc1 [Complex 9, [Au(S2CNHSO2C6H5)(IBnPropargyl)]] | 8.56 ± 1.68 | 0.42 | 31.2 ± 6.85 | 15.5 ± 1.89 | 8.56 ± 1.68 | approximately 39% | approximately 39% | 19.5 ± 2.64 |
| [Au(S2CNHSO2-p-Cl-C6H4)(PPh3)] [Complex 3] | 1.7 ± 0.15 | 0.91 | 2.48 ± 0.14 | 1.51 ± 0.1 | 1.7 ± 0.15 | did not compromise the viability | did not compromise the viability | 14.3 ± 0.19 |
| [Au(S2CNHSO2-p-Cl-C6H4)(TPPTS)] [Complex 6] | 33.7 ± 2.74 | −0.83 |  |  |  |  |  |  |
| [Au(S2CNHSO2-p-Me-C6H4)(IBnPropargyl)] [Complex 10] | 13.2 ± 3.34 |  |  |  |  |  |  |  |
| [Au(S2CNHSO2-p-Me-C6H4)(PPh3)] [Complex 2] | 1.25 ± 0.35 | 0.71 |  |  |  |  |  |  |
| [Au(S2CNHSO2C6H5)(TPPTS)] [Complex 4] | 46.7 ± 5.61 | −0.40 |  |  |  |  |  |  |
